# Data as given in patent publication US12655104B2, “Anticancer compounds selective for ER-positive cancers” (THE BOARD OF TRUSTEES OF THE UNIVERSITY OF ILLINOIS, priority 2020, dated 2026).
# Like-named read-outs stand apart in the source and are kept apart here.
# How the values were obtained:
# ERα− cancer cell lines = assay: Selectivity of cell killing, ERα+ versus ERα− cancer cell lines; format: cell-based; settings: MDA-MB-231, HCT-116, HT-29; for potencies against ERα− cancer cell lines (in words): 24- and 72-hour incubations
# Description: (§1) Cancer Cell Lines: Culturing Conditions and Validation. All cell lines were cultured at 37° C. with 5% CO2. All ERα-positive cell lines were grown in media lacking phenol red. MCF-7 were grown in EMEM with 10% FBS and 1% penicillin-streptomycin (P/S). T47D were cultured in MEM with 10% FBS and 1% P/S. TYS and TDG cells were grown in MEM supplemented with 10% CD-FBS and 1% P/S. HCT-116 and MDA-MB-231 cells were cultured in RPMI-1640 supplemented with 10% FBS and 1% P/S. MDA-MB-436 cells were cultured in DMEM supplemented with 10% FBS and 1% P/S. HT-29 were cultured in McCoy's media supplemented with 10% FBS and 1% P/S. All cell lines were used directly from ATCC stocks and/or have been further authenticated using PowerPlex16HS Assay (Promega) as described previously.^54 In short, >1 million cells were harvested and lysed using the cell lysis buffer (50 mM Tris, 50 mM EDTA, 25 mM sucrose, 100 mM NaCl, 1% SDS, pH 8). DNA extraction and short tandem repeats (STRs) profiling for each cell line were carried out at the University of Arizona Genetics Core (UAGC). Autosomal STR profiles were compared to reference databases such as ATCC, DSMZ, and JCRB.
# (§2) Alamar Blue Fluorescence for Anticancer Activity (IC50). 2,000-15,000 cells per well were seeded a 96-well plate. Cells were allowed to adhere before DMSO stock solutions of test compounds were added to each well with a final concentration of DMSO in each well=1%; final volume: 100 μL. At the end of the desired incubation time (e.g., 24 or 72 hours), media in each well was aspirated and new fresh media (no compound, 100 μL) was added. Alamar blue solution (4 mg resazurin per 40 mL PBS) was then added (10 μL). After 2-6 hours incubation, each well's fluorescence (λexcit.=555 nm, λemission.=585 nm) was measured using a SpectraMax M3 plate reader (Molecular Devices). Percent dead was determined by comparison to a 100% dead control: 100 μM raptinal treated cells. Dose dependent curves and IC50 were calculated using Origin Pro V10.
# [1] = Simulated gastric fluid (SGF) stability assay; format: in vitro ADME; settings: for half-life at 100 μM: simulated gastric fluid with pepsin, pH 1.2
# Description: Simulated Gastric Fluid (SGF) Stability Assay. SGF was prepared fresh by adding 3.2 g pepsin (Sigma Aldrich P7000) to 1000 mL of SGF (Fischer Scientific 7108-16) and the pH adjusted to 1.2 using a pH meter. This SGFwith pepsin solution was then warmed to 37° C. 990 μL of warmed SGFwith pepsin was then aliquoted into multiple Eppendorf tubes, followed by 10 μL of 10 mM DMSO stock solutions of test compounds. Erythromycin (MedChemExpress HY-B0220) is a positive control for this stability assay. Samples were incubated at 37° C. for the entire experiment with vortexing every 15 minutes. At each desired time point (0, 15, 30, 60, 120 minutes), a 100 μL aliquot is removed and quenched into 50 μL of acetonitrile. Samples are stored at 4° C. until all time points are complete. Samples were then vortexed and then clarified at 3,000 RPM for 10 minutes in a 4° C. centrifuge. Supernatants were collected and compound concentrations determined by LC-MS/MS (UIUC Metabolomics Center, Urbana, IL.). Determined compound concentrations were used to calculate percent remaining compared to t=0 samples.
# [2] = test system: anticipatory unfolded protein response (a-UPR); assay: a-UPR immunoblotting/western blot in MCF-7 cells; format: cell-based
# Description: a-UPR Immunoblotting/Western Blot Procedure. 400,000 MCF-7 cells/per well were seeded into 6 or 12 well plates and allowed to adhere overnight. Media was then aspirated from each well and then fresh media with diluted test compound (0.1% DMSO concentration) was added accordingly. Cells were incubated for 4 or 6 hours, then harvested. PBS-washed cell pellets were then lysed using RIPA buffer containing phosphatase (BioVision) and protease inhibitor cocktail (Calbiochem). Protein concentrations were determined using the BCA assay (Pierce). Lysates containing 10-15 μg of protein were loaded onto 4-20% gradient gels (BioRad), and SDS-PAGE was run. Proteins were then transferred onto membrane (PDVF Millipore) and blots blocked with BSA solution (2 g in 40 mL TBST) for one hour. After blocking, primary antibody was added and incubated overnight (using manufacturer's recommended dilutions). Following overnight incubation, blots were washed with TBST (5-minute incubation for each wash, washed 3 times), then incubated with HRP-linked secondary antibody for 1 hour in TBST. Blots were washed (10-minute incubation for each wash for a total of two ten-minute washes). SuperSignal West Pico Solution was then added following manufacturer's procedures and blots imaged with ChemiDoc.
# Antibodies. […]
# MCF-7 cells = assay: Alamar blue fluorescence viability (IC50), MCF-7; format: cell-based; settings: for IC50: Homo sapiens, MCF7
# Description: as §1, §2
# MCF-7 tumors = assay: MCF-7 orthotopic tumor model; format: in vivo, mice; settings: I.V. 5 mg/kg once-a-week, three total doses
# Description: MCF-7 Orthotopic Tumor Model. Nu/J ovariectomized mice (Jackson's lab) were supplemented with a 60-day E2 pellet (0.36 mg, Innovative Research of America) 2-3 days prior to tumor cell inoculation. MCF-7 cells (5×10^6, in 1:1 HBSS:matrigel) were inoculated into the mammary fat pad and allowed to establish and tumors grown to ˜300-400 mm^3 (˜21-28 days to establish). […] Tumor size was measured by caliper, and mouse weights were recorded.
# [3] = Maximum tolerated dose (MTD) in mice; format: in vivo; settings: female, CD-1, mouse, in vivo, iv
# Text: (§3) Maximum Tolerated Dose (MTD) Experiments in Mice and Rats. […] Rodents were monitored for signs of distress, lethargy, neurotoxicity, and so forth for multiple days after compound administration. […] The MTD was defined as the maximum dose in which any acute side effects observed were tolerated and no lethality observed.
# T47D-ERaY537S (TYS) = assay: Alamar blue fluorescence viability (IC50), TYS; format: cell-based; settings: 24 h, read-out: IC50 24 hr (μM)
# Description: as §1, with “DNA extraction and short tandem repeats (STRs) profiling for each cell line were carried out at the University of Arizona Genetics Core (UAGC). Autosomal STR profiles were compared to reference databases such as ATCC, DSMZ, and JCRB.” left out
# (§4) Alamar Blue Fluorescence for Anticancer Activity (IC50). […] After 2-6 hours incubation, each well's fluorescence (λexcit.=555 nm, λemission.=585 nm) was measured using a SpectraMax M3 plate reader (Molecular Devices). Percent dead was determined by comparison to a 100% dead control: 100 μM raptinal treated cells. Dose dependent curves and IC50 were calculated using Origin Pro V10.
# T47D = assay: Alamar blue fluorescence viability (IC50), T47D; format: cell-based; settings: Homo sapiens, 24 h, read-out: IC50 24 hr (μM)
# Description: as §1, with “DNA extraction and short tandem repeats (STRs) profiling for each cell line were carried out at the University of Arizona Genetics Core (UAGC). Autosomal STR profiles were compared to reference databases such as ATCC, DSMZ, and JCRB.” left out
# as §4
# [4] = Pharmacokinetic (PK) studies in mice; format: in vivo
# Description: Pharmacokinetic (PK) Studies. […] Mice were then sacrificed in cohorts of 3 at time points (#, #, #). Blood was collected, centrifuged, and plasma separated for quantification of test compound utilizing LC-MS/MS (UIUC Metabolomics Center, Urbana, IL.). Determined compound concentration was then analyzed using non-linear regression programing (WinNonlin) and pharmacokinetic parameters estimated.
# MDA-MB-436 = assay: Alamar blue fluorescence viability (IC50), MDA-MB-436; format: cell-based; settings: Homo sapiens
# Description: as §1, §2
# HT-29 = assay: Alamar blue fluorescence viability (IC50), HT-29; format: cell-based; settings: Homo sapiens, HT-29, ERα negative
# Description: as §1, §2
# MDA-MB-231 = assay: Alamar blue fluorescence viability (IC50), MDA-MB-231; format: cell-based; settings: Homo sapiens, MDA-MB-231, ERα negative
# Description: as §1, §2
# HCT-116 = assay: Alamar blue fluorescence viability (IC50), HCT-116; format: cell-based; settings: for IC50: Homo sapiens, HCT-116, ERα negative
# Description: as §1, §2
# canines = settings: cited from earlier work
# [5] = Maximum tolerated dose (MTD) in rats; format: in vivo; settings: Sprague Dawley, rat, in vivo, iv
# Text: as §3
# T47D-ERαD538G (TDG) = assay: Alamar blue fluorescence viability (IC50), TDG; format: cell-based; settings: TDG, ERα positive, 24 hr; read-out: IC50 24 hr
# Description: as §1, with “DNA extraction and short tandem repeats (STRs) profiling for each cell line were carried out at the University of Arizona Genetics Core (UAGC). Autosomal STR profiles were compared to reference databases such as ATCC, DSMZ, and JCRB.” left out
# as §4
# CD-1 mice = assay: Maximum tolerated dose (MTD) in mice; format: in vivo; settings: mouse, in vivo, iv
# Text: as §3
# [6] = In vitro metabolite assessment of ErSO; format: in vitro ADME
# [7] = test system: CD Sprague Dawley IGS rats; assay: Maximum tolerated dose (MTD) in rats; format: in vivo; settings: rat, in vivo
# Text: as §3
# [8] = 100 μM in SGF with pepsin, one-phase decay, read-out: t1/2 (min) (95% CI)
# [9] = female, CD-1, mouse, plasma, iv, I.V. 20 mg/kg
# [10] = MCF-7 cells, 24 hours, Alamar blue, mean ± s.e.m., read-out: IC50
structure (smiles),measurement,setting,value
"O=C1Nc2c(C(F)(F)F)cccc2[C@@]1(c1ccc(O)cc1)N1CCC(F)(F)C1 [(R)-24, (R)-3-(3,3-difluoropyrrolidin-1-yl)-3-(4-hydroxyphenyl)-7-(trifluoromethyl)indolin-2-one]",potencies against ERα− cancer cell lines (in words),ERα− cancer cell lines,double-digit micromolar
same,% Remaining after 120 min (SD),[1]; 100 μM in SGF with pepsin,20±1%
same,half-life at 100 μM,[1]; [8],62 min
"O=C1Nc2c(C(F)(F)F)cccc2[C@]1(c1ccc(O)cc1)N1CCC(F)(F)CC1 (single isomer, unassigned) [(S)-2]","a-UPR activation (P-AMPK, P-EIF2α, cleavage of ATF6α p90), western blot",[2],No activation of the a-UPR
same,anticancer activity against MCF-7 cells (in words),MCF-7 cells; MCF-7 cells,devoid of any activity
"O=C1Nc2c(C(F)(F)F)cccc2[C@@]1(c1ccc(O)cc1)N1CC(F)(F)C(F)(F)C1 [Compound (R)-26, (R)-3-(4-hydroxyphenyl)-3-(3,3,4,4-tetrafluoropyrrolidin-1-yl)-7-(trifluoromethyl)indolin-2-one]",fold change MCF-7 versus ERα− cell lines,ERα− cancer cell lines,≥ 3500
same,potencies against ERα− cancer cell lines (in words),ERα− cancer cell lines,double-digit micromolar
same,% Remaining after 120 min (SD),[1]; 100 μM in SGF with pepsin,27±1%
same,half-life at 100 μM,[1]; [8],77 min
same,IC50,"MCF-7 cells; MCF-7, 24 and 72 hr, read-out: IC50 values",4 to 5 nM
"O=C1Nc2c(C(F)(F)F)cccc2[C@@]1(c1ccc(O)cc1)c1ccc(OC(F)(F)F)cc1 [ErSO, (R)-3-(4-hydroxyphenyl)-3-(4-(trifluoromethoxy)phenyl)-7-(trifluoromethyl)indolin-2-one, reference compound]",mouse weight change during MCF-7 study,MCF-7 tumors,no significant weight change
same,MTD,[3],20 mg/kg
same,IC50,T47D-ERaY537S (TYS),0.01 ± 0.001 µM
same,IC50,T47D,0.02 ± 0.001 µM
same,CL,[4]; I.V. 20 mg/kg,33 mL/min/kg
same,AUC,[4]; [9],10100 ng·h/mL
same,Cmax,[4]; [9],7710 ng/mL
same,Vd,"[4]; female, CD-1, mouse, plasma, iv, I.V. 20 mg/kg, read-out: Vss",10.2 L/kg
same,bioavailability,"[4]; female, CD-1, mouse, plasma, po, read-out: oral availability F %",47%
same,IC50,"MDA-MB-436; MDA-MB-436, 24 h, read-out: IC50 24 hr (μM)",22 ± 1 µM
same,IC50,"MDA-MB-436; MDA-MB-436, 72 h, read-out: IC50 72 hr (μM)",14 ± 1 µM
same,IC50,"HT-29; 24 hr, read-out: IC50 24 hr",210 ± 60 nM
same,IC50,"HT-29; 72 hr, read-out: IC50 72 hr",250 ± 70 nM
same,IC50,"MDA-MB-231; 24 hr, read-out: IC50 24 hr",23000 ± 3000 nM
same,IC50,"MDA-MB-231; 72 hr, read-out: IC50 72 hr",8000 ± 1000 nM
same,effects bottom out at (% cell death at lower concentrations),"HCT-116; HCT-116 cells, bottom of IC50 curve",~38%
same,IC50,"HCT-116; 24 hr, read-out: IC50 24 hr",11000 nM
same,IC50,"HCT-116; 72 hr, read-out: IC50 72 hr",260 nM
same,tolerated oral dose,canines,greater than 150 mg/kg
same,% Remaining after 120 min (SD),[1]; 100 μM in SGF with pepsin,93±1%
same,half-life at 100 μM,"[1]; SGF with pepsin, read-out: half-life in SGF",> 120 min
same,MTD,[5],10 to 15 mg/kg
same,IC50,"MCF-7 cells; MCF-7, ERα positive, 24 hr, read-out: IC50 24 hr",20 ± 2 nM
same,IC50,"MCF-7 cells; MCF-7, ERα positive, 72 hr, read-out: IC50 72 hr",14 ± 1 nM
same,IC50,MCF-7 cells; [10],20 nM
same,IC50,T47D-ERαD538G (TDG),15 ± 1 nM
"O=C1Nc2c(C(F)(F)F)cccc2[C@@]1(c1ccc(O)cc1)N1CCCC(F)(F)C1 [(R)-23, (R)-3-(3,3-difluoropiperidin-1-yl)-3-(4-hydroxyphenyl)-7-(trifluoromethyl)indolin-2-one]",potencies against ERα− cancer cell lines (in words),ERα− cancer cell lines,double-digit micromolar
same,% Remaining after 120 min (SD),[1]; 100 μM in SGF with pepsin,0±0%
same,half-life at 100 μM,[1]; [8],10 min
"O=C1Nc2c(C(F)(F)F)cccc2[C@]1(c1ccc(OC(F)(F)F)cc1)c1ccc(O)c(O)c1 [ErSO-OH, (S)-3-(3,4-dihydroxyphenyl)-3-(4-(trifluoromethoxy)phenyl)-7-(trifluoromethyl)indolin-2-one]",intravenous tolerability in mice (in words),CD-1 mice,greater intravenous tolerability in mice
same,abundance as metabolite of ErSO,[6],< 1%
same,rat tolerability (in words),[7],no gains in rat tolerability
same,IC50,MCF-7 cells; [10],24 nM
